Experimental data published in patent publication US8242280B2, “Fused ring heterocycle kinase modulators” (SGX Pharmaceuticals, Inc., priority 2007, dated 2012).

Tests used:
Ba/F3 cells, ABL1 WT = Ba/F3 cells, ABL1 WT (Homo sapiens, UniProt P00519); experiment: 96-well XTT cell survival assay, Ba/F3 ABL1 WT; format: cell-based; conditions: 72 hours, read-out: ABL1 WT XTT [Ba/F3] IC50
Experimental: (§1) MV4-11 and THP cells were maintained in Iscove's Modified Dulbecco's Medium supplemented with 10% fetal bovine serum (FBS) and penicillin/streptomycin, Ba/F3 cells were maintained in RPMI 1640 supplemented with 10% FBS, penicillin/streptomycin and 5 ng/ml recombinant mouse IL-3.
(§2) Compounds were tested in the following assays in duplicate.
(§3) 96-well XTT assay: Cells (e.g. BaF3 315I, M351I, or E255K cells) were grown in growth media containing various concentrations of compounds (duplicates) on a 96-well plate for 72 hours at 37° C. The starting cell number was 5000-8000 cells per well and volume was 120 μl. At the end of the 72-hour incubation, 40 μl of XTT labeling mixture (50:1 solution of sodium 3′-[1-(phenylamino-carbonyl)-3,4-tetrazolium]-bis(4-methoxy-6-nitro)benzene sulfonic acid hydrate and Electron-coupling reagent: PMS (N-methyl dibenzopyrazine methyl sulfate) were added to each well of the plate. After an additional 2-6 hours of incubation at 37° C., the absorbance reading at 405 nm with background correction at 650 nm was measured with a spectrophotometer.

[1] = target: T1, unphosphorylated T315I Abl kinase domain (Mus musculus, UniProt P00520, T315I); experiment: c-Abl T315I 0P bioassay (pyruvate kinase/lactate dehydrogenase coupled enzyme assay); format: biochemical; conditions: zero phosphorylation state (0P), 10 μM ATP, read-out: AbI T315I 0P IC50
T1 construct: purified and unphosphorylated T315I Abl kinase domain; made in house; host or cells: E. coli BL21(DE3) (Codon+RIL or pSA0145 strain)
T1 sequence (P00520 242-493 T315I limits assumed): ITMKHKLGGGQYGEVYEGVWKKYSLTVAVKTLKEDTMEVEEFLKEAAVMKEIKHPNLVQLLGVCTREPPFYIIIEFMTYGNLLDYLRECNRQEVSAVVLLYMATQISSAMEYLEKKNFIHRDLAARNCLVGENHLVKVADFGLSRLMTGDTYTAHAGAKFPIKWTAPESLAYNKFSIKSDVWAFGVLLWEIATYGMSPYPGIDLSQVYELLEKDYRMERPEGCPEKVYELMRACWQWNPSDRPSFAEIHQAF
Source text: Although the first of these examples uses the kinase domain of a mutant form of Abl T315I (“Abl T315I KD”), the kinase assays may use various forms of mutant and wild type enzymes, including, for example, the entire protein, the kinase domain, or a portion thereof (e.g. Abl Y393F). The kinases used in the assays may also be of varying phosphorylation states. In the c-Abl example, a mutant kinase at a zero phosphorylation state was used. c-Abl Pyruvate Kinase/Lactate Dehydrogenase Coupled Enzyme Assay
In the c-Abl Pyruvate Kinase (PK)/Lactate Dehydrogenase (LDH) Coupled Assay the protein kinase dependant phosphorylation of a substrate peptide was coupled to the oxidation of NADH. The oxidation of NADH to NAD+ was detected by monitoring a decrease in absorbance at 340 nm.
Materials: Abl substrate peptide=EAIYAAPFAKKK (SEQ ID NO: 1)—OH (Biopeptide, San Diego, Calif.); pNADH (Sigma Cat#N-8129, FW=709.4); 2M MgC12; 1M HEPES buffer, pH 7.5; Phosphoenolpyruvate (PEP) (Sigma Cat#P-7002, FW=234); Lactate dehydrogenase (LDH) (Worthington Biochemical Cat#2756); Pyruvate Kinase (PK) (Sigma Cat#P-9136); ATP (Sigma Cat#A-3377, FW=551); Greiner 384-well UV star plate; and purified and unphosphorylated T315I Abl kinase domain.
Stock Solutions: 10 mM NADH (7.09 mg/ml in miliQH2O) made fresh daily; 10 mM Abl substrate peptide (13.4 mg/ml in miliQH2O) stored at −20° C.; 100 mM HEPES buffer, pH 7.5 (5 ml 1M stock+45 ml miliQH2O); 100 mM MgCl2 (5 ml 2M MgCl2+95 ml dH2O); 100 MM PEP (23.4 mg/ml in dH2O) stored at −20° C.; 10 mM ATP (5.51 mg/ml in dH2O) stored at −20° C. (diluted 50 μl into total of 10 ml miliQH2O daily=50 μM ATP working stock); 1000 U/ml PK (U/mg varies with lot) flash-frozen under liquid N2 and stored at −80° C.; and 1000 U/ml LDH (U/mg varies with lot) flash-frozen under liquid N2 and stored at −80° C.
Standard Assay Setup for 384-well format (50 μl reaction): 300 μM NADH; 10 mM MgCl2; 2 mM PEP; 45U/ml PK; 60 U/ml LDH; 200 μM Abl substrate peptide; 2.5 μl test compound (in DMSO); 2 μg/ml Abl kinase domain; 10 μM ATP; 100 mM HEPES buffer. Positive controls contained DMSO with no test compound. Negative controls contained 5 μl of 0.5M EDTA (50 mM in the assay). The dephosphorylated form of the c-Abl T315I mutant was used in the biochemical screening assays. The kinase reaction was initiated at time t=0 by the addition of ATP.
Activity was measured by following the time-dependent loss of NADH by absorbance spectroscopy at 340 nm. The linear portion of the resulting progress curve was then analyzed by linear regression to get the activity in absorbance units/time, reported as the slope of that best fit line (moles/unit time can be calculated from using molar extinction coefficient for NADH at 340 nm, 6250M^−1 cm^−1).
Data was evaluated using the equation: Z′=1−[3*(σ++σ−)/|μ+−μ−|](Zhang, et al., 1999 J Biomol Screening 4(2) 67-73), where μ denotes the mean and σ the standard deviation. The subscript designates positive or negative controls. The Z′ score for a robust screening assay should be ≧0.50. The typical threshold=μ+−3*σ+. Any value that falls below the threshold was designated a “hit”.
Dose response was analyzed using the equation: y=min+{(max−min)/(1+10^[compound]−logIC50)}, where y is the observed initial slope, max=the slope in the absence of inhibitor, min=the slope at infinite inhibitor, and the IC50 is the [compound] that corresponds to ½ the total observed amplitude (Amplitude=max−min).
To measure modulation, activation, or inhibition of Abl KD, a test compound was added to the assay at a range of concentrations. Inhibitors may inhibit Abl KD activity at an IC50 in the micromolar range, the nanomolar range, or, for example, in the subnanomolar range.
An open-reading frame for c-Abl was amplified from a Mus musculus (mouse) cDNA library prepared from freshly harvested mouse liver using a commercially available kit (invitrogen) by PCR using the following primers: […]
The c-Abl T315I KD (kinase domain) was purified as follows. […]

Ba/F3 cells, ABL1 T315I = Ba/F3 cells, ABL1 T315I (Homo sapiens, UniProt P00519, T315I, cells depend on it); experiment: 96-well XTT cell survival assay, Ba/F3 ABL1 T315I; format: cell-based; conditions: 72 hours, read-out: ABL1 T315I XTT [Ba/F3] IC50
Experimental: as §1, §2, §3

IC50 [1] [nM]	SMILES	GI50 (Ba/F3 cells, ABL1 WT) [nM]	GI50 (Ba/F3 cells, ABL1 T315I) [nM]
< 50	COc1ccccc1-c1n[nH]c2ncc(-c3cccc(C(O)C(=O)NC4CCN(C)CC4)c3)cc12 (stereo not drawn)	> 1000	> 1000
< 50	COc1ccccc1-c1c[nH]c2ncc(-c3cccc(C(N)C(=O)N(C)C)c3)cc12 (stereo not drawn)	< 1000	< 1000
< 50	COc1ccccc1-c1n[nH]c2ncc(-c3cccc(C(N)C(=O)N(C)CCN(C)C)c3)cc12 (stereo not drawn)	> 1000	> 1000
< 50	COc1ccccc1-c1n[nH]c2ncc(-c3cccc(C(C)C(=O)N(C)C)c3)cc12 (stereo not drawn)	> 1000	> 1000
< 50	COc1ccccc1-c1n[nH]c2ncc(-c3cccc(C(O)c4nccn4C)c3)cc12 (stereo not drawn)	< 1000	> 1000
< 50	CC[C@H](O)[C@@H](O)c1cccc(-c2cnc3[nH]nc(-c4ccccc4OC)c3c2)c1	< 1000	< 1000
< 50	COc1ccccc1-c1c[nH]c2ncc(-c3cccc(C(O)C(=O)N(C)CCN(C)C)c3)cc12 (stereo not drawn)	< 1000	< 1000
< 50	COc1ccccc1-c1c[nH]c2ncc(-c3cccc(C(O)C(=O)N(C)C)c3)cc12 (stereo not drawn)	< 1000	< 1000
< 50	COc1ccccc1-c1n[nH]c2ncc(-c3cccc(C(O)C(=O)N(C)C)n3)cc12 (stereo not drawn)	> 1000	> 1000
< 50	CN(C)C(=O)C(O)c1cncc(-c2cnc3[nH]cc(-c4ccnn4C)c3c2)c1 (stereo not drawn) [drawing 465]	> 1000	> 1000
< 50	CN(C)C(=O)C(O)c1cncc(-c2cnc3[nH]cc(-c4cccc(Cl)c4)c3c2)c1 (stereo not drawn) [drawing 431]	< 1000	< 1000
< 50	COc1ccccc1-c1n[nH]c2ncc(-c3cccc(C(O)C(=O)N4CCC(N(C)C)C4)c3)cc12 (stereo not drawn)	< 1000	< 1000
> 500	COc1ccccc1-c1n[nH]c2ncc(-c3cccc(CO)c3)cc12	< 1000	< 1000
< 50	COc1ccccc1-c1n[nH]c2ncc(-c3cccc(C(C)C(=O)N(C)C4CCN(C)C4)c3)cc12 (stereo not drawn)	< 1000	> 1000
< 50	CCc1ccccc1-c1c[nH]c2ncc(-c3cncc(C(O)C(=O)N(C)C)c3)cc12 (stereo not drawn)	< 1000	< 1000
50 to 500	CC(=O)c1ccccc1-c1c[nH]c2ncc(-c3cncc(C(O)C(=O)N(C)C)c3)cc12 (stereo not drawn)	> 1000	> 1000
< 50	COc1ccccc1-c1n[nH]c2ncc(-c3cccc(C(O)C(=O)N4CCC(O)C4)c3)cc12 (stereo not drawn)	> 1000	> 1000

IC50 [1] [nM]	SMILES	GI50 (Ba/F3 cells, ABL1 WT) [nM]	GI50 (Ba/F3 cells, ABL1 T315I) [nM]
< 50	COc1ccccc1-c1c[nH]c2ncc(-c3cccc(C(O)c4ncccc4C(F)(F)F)c3)cc12 (stereo not drawn)	> 1000	> 1000
< 50	COc1ccccc1-c1c[nH]c2ncc(-c3cccc(C(O)c4nccn4C)c3)cc12 (stereo not drawn)	< 1000	< 1000
< 50	COc1ccccc1-c1n[nH]c2ncc(-c3cccc(C(O)C(N)=O)c3)cc12 (stereo not drawn)	< 1000	< 1000
< 50	COc1ccccc1-c1n[nH]c2ncc(-c3cccc(C(C)(O)C(=O)N(C)C)c3)cc12 (stereo not drawn)	> 1000	> 1000
< 50	COc1ccccc1-c1n[nH]c2ncc(-c3cccc(C(O)C(=O)N4CCC[C@@H]4CO)c3)cc12 (stereo partly drawn)	< 1000	< 1000
> 500	CN(C)C(=O)C(O)c1cncc(-c2cnc3[nH]cc(-c4ccnn4CC(F)(F)F)c3c2)c1 (stereo not drawn)	> 1000	> 1000
< 50	COc1ccccc1-c1n[nH]c2ncc(-c3cccc(C(O)C(=O)N(C)C4CCS(=O)(=O)C4)c3)cc12 (stereo not drawn)	< 1000	> 1000
< 50	CN(C)C(=O)C(O)c1cncc(-c2cnc3[nH]cc(-c4cccc(F)c4F)c3c2)c1 (stereo not drawn)	< 1000	< 1000
< 50	COc1ccccc1-c1n[nH]c2ncc(-c3cccc(C(C)C(=O)N4CCC(N(C)C)C4)c3)cc12 (stereo not drawn)	< 1000	< 1000
< 50	COc1ccccc1-c1c[nH]c2ncc(-c3cccc(C(O)C(=O)N(C)CCNC4CC4)c3)cc12 (stereo not drawn)	< 1000	< 1000
< 50	CNC(C(=O)N(C)C(C)C)c1cccc(-c2cnc3[nH]nc(-c4ccccc4OC)c3c2)c1 (stereo not drawn)	> 1000	> 1000
< 50	CN(C)C(=O)C(O)c1cncc(-c2cnc3[nH]cc(-c4ccccc4OC4CC4)c3c2)c1 (stereo not drawn)	< 1000	< 1000
< 50	COc1ccccc1-c1c[nH]c2ncc(-c3cncc([C@H](O)C(=O)N(C)C)c3)cc12	< 1000	< 1000
< 50	CCN(C)C(=O)C(O)c1cncc(-c2cnc3[nH]cc(-c4ccccc4OC)c3c2)c1 (stereo not drawn)	< 1000	< 1000
< 50	CN(C)C(=O)C(O)c1cncc(-c2cnc3[nH]cc(-c4cnc(N)s4)c3c2)c1 (stereo not drawn)	> 1000	> 1000
< 50	COc1ccccc1-c1c[nH]c2ncc(-c3cccc(C(N)CC(=O)N(C)CCN(C)C)c3)cc12 (stereo not drawn)	> 1000	> 1000
< 50	COc1ccccc1-c1c[nH]c2ncc(-c3ccnc(C(O)C(=O)N(C)C)c3)cc12 (stereo not drawn)	> 1000	> 1000
